Data published in patent US20060270727A1, “Small molecule therapeutics and uses therefor” (priority 2005, published 2006).
Read-outs that look alike come from different tables or passages of the source.

What was measured:
[1] = molecular target: GAA·TTC duplex repeats in the frataxin gene; radiolabeled PCR product containing a (GAA)6 sequence; assay: Quantitative DNase I footprinting on (GAA)6 DNA; type: binding
Excerpt: Targeting GAA Repeat DNA with Polyamides. β-Alanine linked polyamides FA1-FA6 were synthesized (see Example 6) with sequence, theoretical DNA binding site, theoretical DNA binding site SEQ ID NO: ______) and binding affinity as shown in Table 1. […] Those of skill in the art will recognize that this value may be an underestimation of the affinity of this molecule for GAA repeat DNA since the KD measurements are limited by a minimum DNA concentration of ˜2 pM in the binding reaction. Radiolabeling of nucleic acid incorporated γ^32P ATP and polynucleotide kinase used standard procedures.
Polyamlde Synthesis and Characterization. Polyamides were synthesized by solid phase methods (Urbach & Dervan, Id.; Baird & Dervan, 1996, J. Am. Chem. Soc. 118:6141-6146) and their identity and purity verified by MALDI-TOF MS and analytical HPLC, using methods well known in the art. Fluorescent conjugates were prepared by coupling BODIPY (Molecular Probes) to the carboxyl-terminus (Best et al., 2003, Proc. Natl. Acad. Sci. U.S.A. 100:12063-12068). Binding affinities for match and mismatch sites were determined by quantitative DNase I footprinting (Trauger & Dervan, Id). A plasmid harboring six GAA repeats was constructed by cloning the oligonucleotide
in the pCR2.1 TOPO vector (Invitrogen, Calif.), and a 117 bp singly end-labeled PCR product was generated from this plasmid with the following oligonucleotides:
where the second oligonucleotide was labeled with γ-^32P ATP and polynucleotide kinase, using standard procedures, to generate a PCR product labeled on the GAA strand. A 204 bp singly end-labeled PCR product was derived from plasmid pMP142 DNA, containing 33 GAA repeats (Ohshima et al., Id.), with following oligonucleotides: […]

[2] = system: frataxin protein in GM15850 FRDA cells; assay: Western blot of frataxin protein; type: cell-based, human; conditions: 1-2 μM for 7 days, SDS-PAGE and western blot
Procedure: Since the primary transcripts from FRDA frataxin genes contain long stretches of GAA repeat RNA sequence, it is conceivable that this RNA will not be correctly processed into mature frataxin mRNA and frataxin protein will not be produced. To test whether polyamide FA 1 leads to increased levels of frataxin protein in treated lymphoid cells, total cell extracts from polyamide-treated (1-2 μM for 7 days) and untreated GM15851 control and GM15850 FRDA cells were subjected to SDS-PAGE, and the corresponding blots were probed with anti-frataxin or anti-actin antibodies. SDS-PAGE (i.e., sodium dodecylsulfate-polyacrylamide gel electrophoresis) was conducted by standard methods well known in the art.
Western Blot Analysis. Total cell extracts were used for SDS-PAGE and western blotting with antibodies to human frataxin (Chemicon) or actin (Santa Cruz Biotechnology) as a control for cell number and protein loading. Signals were detected by chemiluminescence after probing the blot with HRP-conjugated secondary antibody (Supersignal West, Pierce). To quantify the relative levels of proteins, autoradiograms (within the linear response range of X-ray film) were converted into digital images and the signals quantified using Molecular Dynamics ImageQuant software.

[3] = system: GM15850 FRDA lymphoid cells; assay: DNA microarray of global gene expression, FRDA cells; type: cell-based, human; conditions: for number of genes with affected mRNA levels: P≦0.005; for gene expression profile approaching that of untreated GM15851 cells, in words: FA1 at 1 μM, FA2 at 2 μM
Procedure: (§1) Effects of Polyamides on Global Gene Expression. DNA microarray analyses (see Example 10) were performed with RNA isolated from GM15850 FRDA and GM15851 normal lymphoid cells that were either untreated or treated with polyamides FA1 (at 1 and 2 μM) or FA2 (at 2 μM) for 7 days on Affymetrix Human Genome U133 Plus 2.0 GeneChips®. These chips contain […] oligonucleotides representing all or nearly all of the genes in the human genome). Experiments were conducted according to manufacturer guidelines. […] Although more genes were judged affected by FA1 at 1 μM than at 2 μM, this difference is largely due to genes whose mRNA levels change by less than […] in either direction, and thus are not highly significant. At 2 μM FA1, 15 genes were increased in expression by greater than 50% and one gene was decreased by 45%. […] For GM15851 cells, two genes were up regulated by FA1, and no genes were down regulated. (Note that the probability that the genes affected in GM15851 cells would be judged significant by chance at P≦0.005 is 0.8-1.0, based on analysis with BRB ArrayTools). […] Strikingly, binding sites for FA1 (5′-AAGAAGAAG-3′, SEQ ID NO: ______) are present in 18/20 genes whose mRNA levels are increased by 1.2-fold or greater in GM15850 cells, although this sequence would be expected to appear at random only once per 262,000 bp in genomic DNA.
(§2) DNA Microarrays. FRDA and control lymphoid cells (i.e., lines GM15850 and GM15851, respectively) were incubated with polyamides FA1 (at 1 or 2 μM) or FA2 (at 2 μM), or in the absence of polyamide, in triplicate for seven days prior to RNA purification and microarray analysis. Affymetrix U133A Plus 2.0 GeneChips® were hybridized in groups of eight for each of the three replicates. Raw GeneChip® data were normalized with RMAExpress (Bolstad et al., 2003, Bioinformatics 19:185-193) and the normalized data was filtered to remove probesets called absent on 24 of 24 chips from class comparisons. The Affymetrix probeset-level data was imported to BRB Arraytools (v3.3.0 Beta 3a) selecting the U133 chips used in the experiment and leaving all filters off. For class comparisons between groups of arrays, unpaired samples were used and the random variance model was selected, with the univariate significance threshold set to 0.005. The restrictions for the univariate test were maintained as the default values of 10 for the maximum number of false discovered genes, 0.1 for the maximum proportion of false discoveries, and a 90% confidence level. Because of poor data correlation in one set of replicates, class comparisons were performed using all chips for the control group versus two of the three replicates for the treatment group (i.e., five groups are the minimum number required for class comparisons).

[4] = system: GM15851 normal lymphoid cells; assay: DNA microarray of global gene expression, normal cells; type: cell-based, human; conditions: for number of genes with affected mRNA levels: P≦0.005
Procedure: as §1, §2

[5] = (GAA)6 DNA, values in text, read-out: apparent dissociation constant (KD)
[6] = quantitative DNase I footprinting, mean and standard deviation, minimum of two determinations, read-out: Binding affinity (KD)

Row | Structure (SMILES) | Kd [1, 5] [nM] | Kd [1, 6] [nM] | increase in frataxin protein [2] | genes with comparable changes (>50% increase or 45% decrease) in mRNA levels ([3]; 1 μM) | number of genes with affected mRNA levels ([3]; 1 μM, 7 days) [genes] | frataxin mRNA level as % of that found in GM15851 cells (microarray) ([3]; 2 μM) [%] | genes decreased in expression (by 45%) ([3]; 2 μM) | genes increased in expression by greater than 50% ([3]; 2 μM) [genes] | increase of frataxin mRNA (microarray) ([3]; 2 μM, 7 days) [fold] | number of genes with affected mRNA levels ([3]; 2 μM, 7 days) | slope of gene expression profile correlation vs untreated GM15851 cells ([3]; 2 μM, untreated FRDA cells 0.97) | gene expression profile approaching that of untreated GM15851 cells, in words [3] | genes down regulated [4] | genes up regulated [4] | number of genes with affected mRNA levels ([4]; 7 days) | reduction of binding affinity vs match polyamide ([1]; mismatch vs match polyamide (FA2 vs FA1, FA4 vs FA3)) | transcript levels for frataxin (microarray) ([3]; 2 μM, 7 days) | transcript levels for frataxin (microarray) ([4]; 2 μM, 7 days)
1 | CN(C)CCCNC(=O)CCNC(=O)c1nc(NC(=O)CCNC(=O)c2cc(NC(=O)c3nc(NC(=O)CCNC(=O)c4cc(NC(=O)c5nccn5C)cn4C)cn3C)cn2C)cn1C [FA1, ImPyβImPyβImβDp] | 0.1 | 0.11 ± 0.02 | 2-3 fold | three genes | 51 | 42 | one gene | 15 | 2.5 | 16 genes | 0.69 | seen to a lesser degree | no genes | two genes | two genes | – | – | –
2 | CN(C)CCCNC(=O)CCNC(=O)c1cc(NC(=O)CCNC(=O)c2nc(NC(=O)c3nc(NC(=O)CCNC(=O)c4cc(NC(=O)c5nccn5C)cn4C)cn3C)cn2C)cn1C [FA2, ImPyβImImβPyβDp] | > 100 | > 100 | – | – | – | – | – | – | – | three genes | – | not seen | – | – | one gene | greater than three orders of magnitude | not changed | not changed
